# Laboratory results taken from patent US20210244028A1, “TREATMENT FOR REMOVING ECTOPARASITES FROM FISH” (priority 2018, published 2021).
# Where two headings read alike, the source gives them in different places.
# Experiments:
# L. salmonis = assay: Field well boat treatment, pre- vs post-treatment sea lice counts (Example 4); assay type: in vivo; settings: 20 ppm, 60 minutes, 30 fish per pen, within 24 hours after treatment, pens A-D
# Protocol: (§1) The effectiveness of imidacloprid against pre-adult and adult stages of L. salmonis and Caligus sp. infections on farmed Atlantic salmon was investigated by performing pre- and post-treatment sea lice counts on salmon undergoing a treatment with imidacloprid. This trial was conducted at a commercial salmon farm in Norway. The salmon were pumped onto a well boat and were exposed to 20 ppm imidacloprid for 60 minutes. The average weight of the salmon was 3.5 kg and the average number of salmon per pen was 180,000. 30 fish per pen were assessed for L. salmonis and Caligus sp., and the number of each L. salmonis life stage found was recorded. This was performed within 24 hours prior to treatment, and within 24 hours after treatment.
# These assessments were made on four pens of salmon in total. Prior to treatment, fish were crowded within the pen to enable them to be pumped into the well boat, which is where the pre-treatment sea lice assessments were conducted. The post-treatment sea lice assessments were made by removing fish from the outflow pipe on the well boat.
# At all time points, 3 fish were removed and placed into an anaesthetic bath. This was repeated 10 times until 30 fish had been assessed.
# (§2) The numbers of sea lice observed per fish for this trial for each of the four tested pens according to sea lice life cycle state, pre- or post-administration of active are presented in Table 5.
# farmed Atlantic salmon = assay: Observation of fish during field well boat treatment (Example 4); assay type: in vivo; settings: 20 ppm, 60 minutes
# Protocol: as §1, §2
# Lepeophtheirus salmonis [1] = settings: 20 ppm (nitenpyram 19 ppm); for percentage responsiveness for sea lice recovered from fish at the end of the treatment period: 24 h post-treatment; for percentage responsiveness of lice recovered from tank at treatment end at 24 hours post-treatment: lice knocked off fish
# Protocol: (§3) Lice were monitored continuously for the duration of the exposure and behavioural observations noted, including detachment of lice from fish. At the end of exposure lice were either removed from the tank or fish, placed into small vented plastic screw-top containers (125 mL, LDPE, 25 mm hole drilled into lid and secured with 200 μm mesh), and transferred to a clean tank supplied with filtered sea water and held there for 24 h. Lice which had detached from fish were kept separate from those that had not detached.
# 24 h post-treatment lice were removed from the screw-top containers to check if they were alive and, if so, if they were responsive. Categories were defined as follows: alive—movement detected; responsive—alive and actively avoids stimulation in a coordinated manner; dead—no movement detected.
# Lice defined as responsive could potentially re-attach to a fish. After assessment lice were transferred to 70% alcohol in case determination of instar and sex was required.
# Lepeophtheirus salmonis [2] = settings: 20 ppm (nitenpyram 19 ppm); for percentage of sea lice that dropped from treated fish at the end of the treatment period: culled fish
# Protocol: The fish were acclimatised until normal feeding behaviour resumed, up to a maximum of 10 days, prior to challenge. The fish were housed in 750 litre tanks at a stocking density of no greater than 35 kg/m3. Tanks were provided with a continuous supply of seawater at a flow rate greater than 5 L/min at a temperature of 4.8-10.4° C. The photoperiod was set at 12 hours light: 12 hours dark.
# The fish were challenged in a static bath with copepodid instar of Lepeophtheirus salmonis with the appearance of egg strings freshly removed from adult female lice at a target titre of 1,250-1,700 copepodids per tank
# Egg strings were harvested from gravid sea lice and incubated in upwelling chambers until nauplii eclosion. Nauplii were allowed to moult through to the copepodid instar (5 days at approx. 10° C.) and then the tank water was filtered through a 100 μm mesh before re-suspending the copepodids in 225 mL of sea water. A 25 mL sample was removed which was then split into 1-2 mL samples in a 24-well plate and the nauplii/copepodids were counted under a stereo microscope. When abundance was sufficient and a minimum of 80% were copepodids the fish were challenged for 8 hours under static flow in the dark.
# Fish were randomly selected from tanks, lightly sedated in a 90 ppm MS222 solution sufficient only to induce loss of equilibrium before being sacrificed by a non-recoverable blow to the head. Between 4 and 33 fish were required per treatment.
# Culled fish were then suspended in treatment tanks. Fish were suspended in the tank horizontally from cable ties (one through the opercular cavity, one around the peduncle) and wire attached to a wooden rod). One 20 L tank of test item at 20 ppm was used per day. Lice on culled fish were exposed for either 5, 10, 15, 30 or 60 minutes (negative control was only exposed for 60 minutes as this would cover the longest exposure period to be tested). The order within treatment was randomised.
# as §3
# On the day of exposure, 200 mg of the test ectoparasite treatments was added to 1 L of sea water. Only 192 mg of nitenpyram was supplied. The solution was mechanically stirred for 30 minutes, using a stirring plate and magnetic flea (VWR), at a speed sufficient to generate a strong vortex to ensure a homogenous solution. This was then transferred into an approx. 25 L clear plastic tank containing 9 L of sea water. The solution was then mixed for a further 10 minutes using a small pump (Fluval Sea CP1), which was then removed from the tank prior to addition of fish.
# Each treatment requiring 1 to 4 fish per individual treatment per replicate and 2 to 13 fish per group per replicate. Treatments with negative control (sea water), dinotefuran, clothianidin and thiamethoxam were replicated twice, and for imidacloprid three times. There was only one replicate per treatment for nitenpyram. The mean number of lice used per individual treatment was 5.5 to 10, with the mean per group being 6.2-7.2 lice.
# fish = assay: Safety of imidacloprid treatment on fish (Example 8); assay type: in vivo; settings: 65 ppm
# Protocol: The safety of the imidacloprid treatment on fish was assessed. Fish held in a flow through tank containing 271.8 L of sea water were exposed to 65 ppm w/v of the active ingredient imidacloprid. 17.67 g of imidacloprid was dissolved in 100 ml of dimethyl sulfoxide (DMSO) and the solution was added to approximately 900 ml sea water and mixed. The flow on the through tank was disabled and the solution of imidacloprid was added.
# The fish were exposed to 65 ppm imidacloprid in static water for 1 hour and observed for behavioural changes at 5-10 minute intervals. The fish were then held for a further 7 days before being terminated.
# [3] = exposure 15 min, * only one louse knocked down
# [4] = exposure 30 min, * only one louse knocked down
# [5] = exposure 60 min, * only one louse knocked down
structure (smiles),measurement,setting,value
O=[N+]([O-])NC1=NCCN1Cc1ccc(Cl)nc1 [imidacloprid],"Post-treatment sea lice count, Adult Female",L. salmonis,0.0 sea lice per fish
same,"Post-treatment sea lice count, Adult Male",L. salmonis,0.0 sea lice per fish
same,"Post-treatment sea lice count, Gravid Female",L. salmonis,0.0 sea lice per fish
same,"Post-treatment sea lice count, Pre-Adult Female",L. salmonis,0.0 sea lice per fish
same,"Post-treatment sea lice count, Pre-Adult Male",L. salmonis,0.0 sea lice per fish
same,"Post-treatment sea lice count, Total",L. salmonis,0.0 sea lice per fish
same,Fish behaviour observed throughout treatment,farmed Atlantic salmon,no adverse behaviours seen
same,percentage responsiveness for sea lice recovered from fish at the end of the treatment period,Lepeophtheirus salmonis [1]; exposure 5 min,100%
same,percentage responsiveness for sea lice recovered from fish at the end of the treatment period,Lepeophtheirus salmonis [1]; exposure 10 min,100%
same,percentage responsiveness of lice recovered from tank at treatment end at 24 hours post-treatment,Lepeophtheirus salmonis [1]; exposure 10 min,100%
same,percentage responsiveness for sea lice recovered from fish at the end of the treatment period,Lepeophtheirus salmonis [1]; exposure 15 min,45%
same,percentage responsiveness of lice recovered from tank at treatment end at 24 hours post-treatment,Lepeophtheirus salmonis [1]; exposure 15 min,33%
same,percentage responsiveness for sea lice recovered from fish at the end of the treatment period,Lepeophtheirus salmonis [1]; exposure 30 min,50%
same,percentage responsiveness of lice recovered from tank at treatment end at 24 hours post-treatment,Lepeophtheirus salmonis [1]; exposure 30 min,10%
same,percentage responsiveness for sea lice recovered from fish at the end of the treatment period,Lepeophtheirus salmonis [1]; exposure 60 min,no lice responsive
same,percentage responsiveness for sea lice recovered from fish at the end of the treatment period,"Lepeophtheirus salmonis [1]; exposure 60 min, listed as Imidacloprid",0%
same,percentage responsiveness of lice recovered from tank at treatment end at 24 hours post-treatment,Lepeophtheirus salmonis [1]; exposure 60 min,0%
same,percentage of sea lice that dropped from treated fish at the end of the treatment period,Lepeophtheirus salmonis [2]; exposure 5 min,0%
same,knockdown times (mean±SEM),Lepeophtheirus salmonis [2]; exposure 10 min,481 ± 60 s
same,percentage of lice for which their knockdown time equalled that of the exposure time,Lepeophtheirus salmonis [2]; exposure 10 min,33.3%
same,percentage of sea lice that dropped from treated fish at the end of the treatment period,Lepeophtheirus salmonis [2]; exposure 10 min,20.0%
same,percentage of sea lice that dropped from treated fish at the end of the treatment period,Lepeophtheirus salmonis [2]; exposure 15 min,42.9%
same,knockdown times (mean±SEM),Lepeophtheirus salmonis [2]; [3],586 ± 114 s
same,percentage of lice for which their knockdown time equalled that of the exposure time,Lepeophtheirus salmonis [2]; [3],28.6%
same,percentage of sea lice that dropped from treated fish at the end of the treatment period,Lepeophtheirus salmonis [2]; exposure 30 min,41.2%
same,knockdown times (mean±SEM),Lepeophtheirus salmonis [2]; [4],1029 ± 165 s
same,percentage of lice for which their knockdown time equalled that of the exposure time,Lepeophtheirus salmonis [2]; [4],11.1%
same,percentage of sea lice that dropped from treated fish at the end of the treatment period,Lepeophtheirus salmonis [2]; exposure 60 min,92.9%
same,knockdown times (mean±SEM),Lepeophtheirus salmonis [2]; [5],1209 ± 235 s
same,percentage of lice for which their knockdown time equalled that of the exposure time,Lepeophtheirus salmonis [2]; [5],7.7%
same,Adverse reactions during a further 7 days,"fish; 1 hour exposure, 7 days monitoring",no adverse reactions
same,External pathologies on termination,"fish; 1 hour exposure, terminated after 7 days",no external pathologies
same,Fish behaviour during the exposure period,"fish; static water, 1 hour",No observable changes in fish behaviour
